From PubChem BioAssay (NCI)
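Tested at 5 concentrations; 48 h exposure; 96-well plates; endpoints linearly interpolated, else capped at highest concentration. The concentration for full growth arrest is given as TGI.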

Experiments:
Experiment in all cases: DTP human tumour cell line panel, 48 h
[1] = tested on: DMS 273 small cell lung
[2] = tested on: SNB-78 CNS
[3] = tested on: DMS 114 small cell lung

| SMILES | TGI [1] [µM] | TGI [2] [µM] | TGI [3] [µM] |
| --- | --- | --- | --- |
| Cc1ccc(NP(=O)(Oc2ccccc2)N(CCCl)CCCl)cc1 (stereo not drawn) | > 100 | > 100 | > 100 |
| C=CCc1cc(-c2cc(CC=C)c(O)c(CNC)c2)cc(CNC)c1O |  | 40.8 | 30.4 |
| CSc1nc(NC2OCC(OC(C)=O)C(OC(C)=O)C2OC(C)=O)c(N=C(C)C(C)=O)c(=O)[nH]1 (stereo not drawn) | > 100 | > 100 | > 100 |
| CCCCCCCCCCCCCCCc1ccc(OCC(O)CO)cc1 (stereo not drawn) | 33.3 | 99.3 | 68.3 |
| Cc1nc2c(n1C)C(=O)c1nc(CBr)[nH]c(=O)c1C2=O | > 100 |  | > 100 |
